Laboratory results from patent US8669249B2, “Poly (ADP-ribose) polymerase (PARP) inhibitors” (Takeda Pharmaceutical Company Limited, priority 2009, dated 2014).
pIC50: −log10 of the molar value.

How the values were obtained:
PARP = molecular target: T1, PARP (Homo sapiens, UniProt P09874); experiment: PARP ELISA (ELISA-based colorimetric PARP/Apoptosis Assay kit, Trevigen); assay type: biochemical; conditions: pIC50=-log10 IC50, IC50 in mol/L; inhibition of PARP catalytic activity
T1 construct: purchased Trevigen 4684-096-K HT (kit); 4684-096-01 (PARP enzyme)
T1 sequence (P09874 whole entry): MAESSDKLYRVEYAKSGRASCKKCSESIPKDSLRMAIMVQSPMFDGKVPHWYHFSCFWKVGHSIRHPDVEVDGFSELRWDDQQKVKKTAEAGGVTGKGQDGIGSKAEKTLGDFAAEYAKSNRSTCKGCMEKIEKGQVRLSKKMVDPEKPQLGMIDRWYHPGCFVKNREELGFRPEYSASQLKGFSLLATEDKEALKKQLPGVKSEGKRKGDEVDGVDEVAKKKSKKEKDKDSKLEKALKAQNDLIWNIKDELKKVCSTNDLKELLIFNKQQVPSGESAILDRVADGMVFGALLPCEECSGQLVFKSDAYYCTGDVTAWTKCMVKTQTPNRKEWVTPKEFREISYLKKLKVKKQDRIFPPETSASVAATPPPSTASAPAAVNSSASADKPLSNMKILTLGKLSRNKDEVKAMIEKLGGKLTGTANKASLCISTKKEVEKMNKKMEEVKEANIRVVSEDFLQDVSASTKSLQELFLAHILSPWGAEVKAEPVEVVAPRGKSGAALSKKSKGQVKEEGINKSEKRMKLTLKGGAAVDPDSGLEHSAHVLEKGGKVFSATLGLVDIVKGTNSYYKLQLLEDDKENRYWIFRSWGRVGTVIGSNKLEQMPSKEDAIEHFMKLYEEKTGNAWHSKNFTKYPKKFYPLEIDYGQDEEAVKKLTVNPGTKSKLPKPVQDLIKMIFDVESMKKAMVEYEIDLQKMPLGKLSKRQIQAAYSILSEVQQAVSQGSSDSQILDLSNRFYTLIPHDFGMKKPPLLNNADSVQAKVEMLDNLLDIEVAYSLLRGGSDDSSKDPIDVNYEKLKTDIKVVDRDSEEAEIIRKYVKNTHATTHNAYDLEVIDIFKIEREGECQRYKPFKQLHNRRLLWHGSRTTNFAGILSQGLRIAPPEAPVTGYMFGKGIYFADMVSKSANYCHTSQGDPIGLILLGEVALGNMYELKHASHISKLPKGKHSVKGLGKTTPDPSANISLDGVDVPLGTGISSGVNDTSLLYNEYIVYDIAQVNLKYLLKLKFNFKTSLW
How it was run: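 Quenched after 10 min catalysis by aspiration and four PBS/0.1% Triton X-100 washes. Poly(ADP-ribose) detected with mouse anti-PAR monoclonal antibody, goat anti-mouse IgG-HRP and HRP substrate; colorimetric signal proportional to PARP catalytic activity.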

Jurkat cell line = experiment: PARP cellular chemopotentiation assay (MTS, with/without TMZ); assay type: cell-based; conditions: Chemopotentiation factor: ratio of EC50 values of Jurkat cells co-treated without and with 100 μM TMZ; 96 hours
How it was run: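 Jurkat cells, 10,000/well, pre-cultured 24 h, then treated 96 h with serial compound dilutions (0.5% DMSO) with or without 100 μM TMZ. Viability by MTS conversion (OD490), normalized to DMSO controls; EC50 from curve fits, PF50 = EC50 without TMZ / EC50 with TMZ.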

Compound | pIC50 (PARP) | PF50 (Jurkat cell line)
CCNC(=O)c1ccc(N2CCN(Cc3cc4c(c(OC)c3)OC(C)C(=O)N4)CC2)c(C)c1 (centres unmarked) [Compound 363, N-ethyl-4-(4-((8-methoxy-2-methyl-3-oxo-3,4-dihydro-2H-benzo[b][1,4]oxazin-6-yl)methyl)piperazin-1-yl)-3-methylbenzamide] | 7.50 | 6522
CNC(=O)c1ccc(N2CCN(Cc3cc4c(c(OC)c3)OC(C)C(=O)N4)CC2)c(F)c1 (centres unmarked) [Compound 365, 3-Fluoro-4-(4-((8-methoxy-2-methyl-3-oxo-3,4-dihydro-2H-benzo[b][1,4]oxazin-6-yl)methyl)piperazin-1-yl)-N-methylbenzamide] | 7.50 | 1.3
CNC(=O)c1ccc(N2CCN(Cc3cc4c(c(OC)c3)OC(C)C(=O)N4)CC2)c(Cl)c1 (centres unmarked) [Compound 366, 3-Chloro-4-(4-((8-methoxy-2-methyl-3-oxo-3,4-dihydro-2H-benzo[b][1,4]oxazin-6-yl)methyl)piperazin-1-yl)-N-methylbenzamide] | 7.60 | 4.6
CCNC(=O)c1ccc(N2CCN(Cc3ccc4c(c3)NC(=O)CO4)CC2)c(Cl)c1 [Compound 367, 3-Chloro-N-ethyl-4-(4-((3-oxo-3,4-dihydro-2H-benzo[b][1,4]oxazin-6-yl)methyl)piperazin-1-yl)benzamide] | < 6.70 | 2.5
CCNC(=O)c1ccc(N2CCN(Cc3cc4c(c(OC)c3)OCC(=O)N4)CC2)c(Cl)c1 [Compound 370, 3-Chloro-N-ethyl-4-(4-((8-methoxy-3-oxo-3,4-dihydro-2H-benzo[b][1,4]oxazin-6-yl)methyl)piperazin-1-yl)benzamide] | 7.10 | 5.0
CCNC(=O)c1ccc(N2CCN(Cc3ccc4c(c3)NC(=O)C(C)O4)CC2)c(Cl)c1 (centres unmarked) [Compound 371, 3-Chloro-N-ethyl-4-(4-((2-methyl-3-oxo-3,4-dihydro-2H-benzo[b][1,4]oxazin-6-yl)methyl)piperazin-1-yl)benzamide] | 7.80 | >20
COc1cc(CN2CCN(c3ccc(C(=O)NC4CC4)cc3F)CC2)cc2c1OC(C)C(=O)N2 (centres unmarked) [Compound 372, N-Cyclopropyl-3-fluoro-4-{4-[(8-methoxy-2-methyl-3-oxo-3,4-dihydro-2H-1,4-benzoxazin-6-yl)methyl]piperazin-1-yl}benzamide] | 7.70 | 1.0
COc1cc(CN2CCN(c3ccc(C(=O)NC4CC4)cc3Cl)CC2)cc2c1OC(C)C(=O)N2 (centres unmarked) [Compound 373, 3-Chloro-N-cyclopropyl-4-(4-((8-methoxy-2-methyl-3-oxo-3,4-dihydro-2H-benzo[b][1,4]oxazin-6-yl)methyl)piperazin-1-yl)benzamide] | 7.70 | 3.2
CCNC(=O)c1ccc(N2CCN(Cc3cc4c(c(OC)c3)OCC(=O)N4)CC2)c(C)c1 [Compound 374, N-Ethyl-4-(4-((8-methoxy-3-oxo-3,4-dihydro-2H-benzo[b][1,4]oxazin-6-yl)methyl)piperazin-1-yl)-3-methylbenzamide] | 7.50 | <2.0
COc1cc(CN2CCN(c3ccc(C(=O)NC4CC4)cc3C)CC2)cc2c1OCC(=O)N2 [Compound 375, N-cyclopropyl-4-(4-((8-methoxy-3-oxo-3,4-dihydro-2H-benzo[b][1,4]oxazin-6-yl)methyl)piperazin-1-yl)-3-methylbenzamide] | 7.80 | >2.0
CNC(=O)c1ccc(N2CCN(Cc3cc4c(c(OC)c3)OCC(=O)N4)CC2)c(C)c1 [Compound 376, 4-(4-((8-Methoxy-3-oxo-3,4-dihydro-2H-benzo[b][1,4]oxazin-6-yl)methyl)piperazin-1-yl)-N,3-dimethylbenzamide] | 7.80 | >6.0
CC1Oc2ccc(CN3CCN(c4ccc(C(=O)N5CCCC5)cc4)CC3)cc2NC1=O (centres unmarked) [Compound 377, 2-Methyl-6-((4-(4-(pyrrolidine-1-carbonyl)phenyl)piperazin-1-yl)methyl)-2H-benzo[b][1,4]oxazin-3(4H)-one] | < 6.70 | 1.0
CNC(=O)c1ccc(N2CCN(Cc3cc(C)c4c(c3)NC(=O)C(C)O4)CC2)c(F)c1 (centres unmarked) [Compound 380, 4-(4-((2,8-Dimethyl-3-oxo-3,4-dihydro-2H-benzo[b][1,4]oxazin-6-yl)methyl)piperazin-1-yl)-3-fluoro-N-methylbenzamide] | 7.30 | 4.0
CCNC(=O)c1ccc(N2CCN(Cc3cc(C)c4c(c3)NC(=O)C(C)O4)CC2)c(F)c1 (centres unmarked) [Compound 381, 4-(4-((2,8-Dimethyl-3-oxo-3,4-dihydro-2H-benzo[b][1,4]oxazin-6-yl)methyl)piperazin-1-yl)-N-ethyl-3-fluorobenzamide] | 7.40 | >2
CCNC(=O)c1ccc(N2CCN(Cc3cc(C)c4c(c3)NC(=O)C(C)O4)CC2)c(Cl)c1 (centres unmarked) [Compound 382, 3-Chloro-4-(4-((2,8-dimethyl-3-oxo-3,4-dihydro-2H-benzo[b][1,4]oxazin-6-yl)methyl)piperazin-1-yl)-N-ethylbenzamide] | 7.10 | 3.4

Continued, in another order:

pIC50 (PARP) | Compound | PF50 (Jurkat cell line)
7.30 | CNC(=O)c1ccc(N2CCN(Cc3cc(C)c4c(c3)NC(=O)C(C)O4)CC2)c(Cl)c1 (centres unmarked) [Compound 383, 3-Chloro-4-(4-((2,8-dimethyl-3-oxo-3,4-dihydro-2H-benzo[b][1,4]oxazin-6-yl)methyl)piperazin-1-yl)-N-methylbenzamide] | 3.2
7.40 | CNC(=O)c1ccc(N2CCN(Cc3cc(C)c4c(c3)NC(=O)C(C)O4)CC2)c(C)c1 (centres unmarked) [Compound 384, 4-(4-((2,8-Dimethyl-3-oxo-3,4-dihydro-2H-benzo[b][1,4]oxazin-6-yl)methyl)piperazin-1-yl)-N,3-dimethylbenzamide] | 8.4
7.30 | CCNC(=O)c1ccc(N2CCN(Cc3cc(C)c4c(c3)NC(=O)C(C)O4)CC2)c(C)c1 (centres unmarked) [Compound 385, 4-(4-((2,8-Dimethyl-3-oxo-3,4-dihydro-2H-benzo[b][1,4]oxazin-6-yl)methyl)piperazin-1-yl)-N-ethyl-3-methylbenzamide] | 5.9
7.30 | Cc1cc(C(=O)NC2CC2)ccc1N1CCN(Cc2cc(C)c3c(c2)NC(=O)C(C)O3)CC1 (centres unmarked) [Compound 386, N-Cyclopropyl-4-(4-((2,8-dimethyl-3-oxo-3,4-dihydro-2H-benzo[b][1,4]oxazin-6-yl)methyl)piperazin-1-yl)-3-methylbenzamide] | >5.0
7.30 | Cc1cc(CN2CCN(c3ccc(C(=O)NC4CC4)cc3F)CC2)cc2c1OC(C)C(=O)N2 (centres unmarked) [Compound 387, N-Cyclopropyl-4-(4-((2,8-dimethyl-3-oxo-3,4-dihydro-2H-benzo[b][1,4]oxazin-6-yl)methyl)piperazin-1-yl)-3-fluorobenzamide] | >5.0
7.10 | Cc1cc(CN2CCN(c3ccc(C(=O)NC4CC4)cc3Cl)CC2)cc2c1OC(C)C(=O)N2 (centres unmarked) [Compound 388, 3-Chloro-N-cyclopropyl-4-(4-((2,8-dimethyl-3-oxo-3,4-dihydro-2H-benzo[b][1,4]oxazin-6-yl)methyl)piperazin-1-yl)benzamide] | 6558
< 6.70 | CC1Oc2ccc(CC3CCN(c4ccccc4)CC3)cc2NC1=O (centres unmarked) [Compound 389, 2-Methyl-6-((1-phenylpiperidin-4-yl)methyl)-2H-benzo[b][1,4]oxazin-3(4H)-one] | 1.1
